Holding throughout (type): cell-based
The test system of assay [1] is IL-1β release from a mouse microglial cell line. In words: Interleukin-1β microglial cell assay (LPS / IFN gamma). As to conditions: LPS (10 μg/ml) and IFN gamma (10 ng/ml), 24 hours, read-out: EC50, inhibition of IL-1 beta induction. Here is the method: This assay measures the release of IL-1β from a mouse microglial cell line following an inflammatory challenge with LPS and interferon-gamma. The ability of test articles to inhibit microglial cell activation and IL-1β release is determined by co-incubation of the test article with the inflammatory challenge.
Mouse microglial cells were seeded in poly-D-lysine coated 96-well plates at a density of 10,000 cells/well and allowed to attach for 24 hours. Cells were stimulated by addition of LPS (10 μg/ml) and IFN gamma (10 ng/ml) in the presence or absence of test article. The cells were then incubated for 24 hours at 37° C., after which time the media was removed and used for cytokine determination as described below.
Viability of mouse microglial cells after exposure to the test article was determined using a fluorescent viability dye, Cell Tracker Green. Cell Tracker Green was used at a working concentration of 5 μM in 1×HBSS. Cells were washed once with HBSS (200 μl/well) and 100 μl Cell Tracker Green was added to each well. Cells were then incubated at 37° C. for 30 minutes, after which time the Cell Tracker was removed and the cells were washed once with HBSS (200 μl/well). 100 pl fresh HBSS was added to each well and the plate was read on a Fluoroskan plate reader using an excitation wavelength of 485 nm and an emission wavelength of 538 nm.
1. […]
• The Costar EIA Hi-binding plate was coated with capture antibody at 4 μg/ml. […] Each well was filled to the top, dispensed, and any remaining buffer was removed by inverting the plate and gently blotting against clean paper towels. • Non-specific binding sites were blocked by adding 300 μl of Blocking Buffer to each well, and after sealing incubating for at least 1 hour at room temperature. • After washing the plate was now ready for the samples. […] 100 μl of this Substrate Solution mixture was added to each well and the plate was incubated in the dark for 20 minutes at room temperature. • 50 μl of Stop Solution was added to each well, mixing was ensured by gently tapping. • Each plate was read with the Spectramax once at 450 nm. […]

Assay [2] has as its system dopaminergic neuronal cell line. In words: High glutamate-induced oxidative stress assay (HGOS). As to conditions: Mus musculus; 30 mM glutamate, 16 hrs; read-out: EC50, protection against HGOS cell injury and cell death. The text has this: Protection against redox stress can be evaluated in cell culture using high glutamate induced oxidative stress (HGOS) in mouse dopaminergic cell lines. The cytotoxic effect of glutamate is not due to excitotoxicity, as this cell line is devoid of inotropic glutamate receptors. Rather, the glutamate-induced toxicity of dopaminergic cells is associated with an inhibition of cystine transport which subsequently leads to depletion of intracellular glutathione (GSH) levels (Murphy T. H., et al. Neuron 2, 1547-1558, 1989), activation of neuronal 12-lipoxygenase (Li, Y. et al., Neuron 19, 453-463, 1997), increased ROS production (Tan S. et al., J. Cell Biol. 141, 1423-1432, 1998) and elevated intracellular Cat^2+ (Li, Y. et al., see supra). Some molecules were measured for their ability to protect cells against glutamate-induced stress and the assay is detailed in Examples.
This procedure was used to induce high glutamate-induced oxidative stress (HGOS) in a dopaminergic neuronal cell line. Using this assay the potency and efficacy of test articles against HGOS neuronal cell injury and cell death was established in a high throughput manner.
• Dopaminergic neuronal cell lines • DMEM-No Glucose (Life Technologies Cat #11966-025) • L-glutamine (Life Technologies Cat #25030-081) • L-glutamic acid, monosodium salt (Sigma Cat #G5889) • D-glucose (Sigma Cat #G-6151) • 10×HBSS buffer (pH 7.4) (950 ml Pyrogen-free water, 2.44 g/L MgCl2.6H20, 3.73 g/L KCl, 59.58 g/L Hepes, 58.44 g/L NaCl, 1.36 g/L KH2PO4, 1.91 g/L CaCl2.2H2O and pH to […] with HCl) • Cell Tracker Green fluorescent dye (Molecular Probes, Cat #2925). Prepare a 5NM solution in pre-warmed HBSS just prior to use. • Sterile 96-well plates precoated with poly-D-lysine (Corning Catalog #3665) • 96-well deep well mother plate, DyNA Block 1000 (VWR Catalog #40002-008) Neuronal Cells
The cells were seeded into 96-well plates at a density of 2000 per well and left to grow for 72 hours in a 33° C. incubator with 5% CO2 in air atmosphere. The passage number of the cells for each assay experiment were no later than p11 in order to minimize experimental variation.
All compounds were dissolved in DMEM-No Glu containing 1 mM glucose, 30 mM glutamate and 1× Pen/Strep. DMEM-No Glu with 1 mM glucose and 1× P/S was used as the negative control, DMEM-No Glucose with 1 mM glucose, […] glutamate was used as a positive control and 100 NM Glutathione was added to the positive control as a standard. All of the procedures for this involving the making and dilution of compounds were performed using aseptic conditions and with minimal light.
The plates were removed from the incubator and examined under the microscope for morphological appearance and density. Using an aseptic technique and an 8-channel aspirator the media was carefully removed from the cells and replaced with 200 μI of 1×HBSS. This was done as quickly as possible to prevent the cells drying out. The plates were then placed in the humidified 37° C. incubators of the Biomek 2000 Side Loader. Four plates were washed at a time so as to minimize the time that the cells were sitting in 1×HBSS prior to addition of the compound test solution. Experimental Setup
The Beckman Biomek workstations were used to load the compounds and controls from the mother plates onto the cell plates that were prewashed with HBSS under sterile conditions. The plates were incubated in the upper HTS incubator at 37° C. in 5% CO2 for exactly 16 hrs. The following day, using the Beckman Biomek workstations, the plates were removed from the incubator. Using Cell Tracker Addition, the compounds were removed from the plates, washed once with […] of pre-warmed 1×HBSS and then 100 μL of 5 μM Cell Tracker Green was added to each well. The plates were incubated at 37° C. for 30 min to allow the dye to enter the cell and be cleaved by the esterases. […]

For assay [3], the system named is FRDA fibroblasts. As to the kind of experiment: FRDA fibroblast assay for protection from oxidative stress (BSO). The settings on record: Homo sapiens, preincubation 24 h before 1 mM BSO, read-out: EC50, reduced cell death in FRDA fibroblasts compared to untreated FRDA fibroblasts. The text has this:
A cellular assay using FRDA-patient derived fibroblasts (as described by Jauslin, M L et al, Human Molecular Genetics 11; 3055-3063 (2002)); was used to determine the protective effects of the test compounds by analyzing survival of dermal fibroblasts taken from FRDA patients and unaffected normal donors under conditions of partial GSH depletion. Exposure of FRDA fibroblasts to BSO (L-buthionine (S,R)-sulfoximine) under conditions of restricted selenium causes depletion of cellular glutathione (GSH) and severe plasma membrane damage leading to cell death. Preincubation with the test compounds before the addition of BSO was used to determine if they could protect FRDA cells from BSO-mediated cell death.
Primary fibroblasts were derived from donors with a molecular diagnosis of FRDA and control donors with no mitochondria) disease. Lines F2, C2 and C3 were obtained from Coriell Cell Repositories (Camden, N.J., USA; catalog nos GM04078, GM 08402 and GM08399, respectively). All cell types were diagnosed at the molecular level for intronic GAA triplet repeat length in the frataxin gene using a PCR-based method, according to methods known in the art. […] The cells were seeded in 96-well plates at a density of 4000 cells per 100 pI in growth medium consisting of 25% (v/v) M199 EBS and 64% (v/v) MEM EBS without phenol red (Bioconcept, Allschwil, Switzerland) supplemented with 10% (v/v) fetal calf serum (PAA Laboratories, Linz, Austria), 100 U/ml penicillin, 100 μg/ml streptomycin (PAA Laboratories, Linz, Austria), 10 μg/ml insulin (Sigma, Buchs, Switzerland), 10 ng/ml EGF (Sigma, Buchs, Switzerland), 10 ng/ml bFGF (PreproTech, Rocky Hill, N.J., USA) and 2 mM glutamine (Sigma, Buchs, Switzerland). The cells were incubated in the presence of the various test compounds for 24 h before addition of 1 mM BSO (L-buthionine (S,R)-sulfoximine).
Cell viability was measured after the first signs of toxicity appeared in the BSO-treated controls (typically after 16-48 h). The cells were stained for 60 min at room temperature in PBS with 1.2 μm calceinAM and 4 pm ethidium homodimer (Live/Dead assay, Molecular Probes, Eugene, Oreg., USA). Fluorescence intensity was measured with a Gemini Spectramax XS spectrofluorimeter (Molecular Devices, Sunnyvale, Calif., USA) using excitation and emission wavelengths of 485 and 525 nm, respectively.

Each structure is given as a SMILES string. Bounds are passed on as bounds.

What is called EC50 is the concentration that produces a half-maximal response. Take `Cc1cc(C)nc(SCc2c(O)c(C)c(C)c3c2CCC(C)(C)O3)n1` [5-(4,6-Dimethyl-pyrimidin-2-ylsulfanylmethyl)-2,2,7,8-tetramethyl-chroman-6-ol]: the EC50 in assay [1] was ≤ 20 µM; in assay [2], < 5 µM.
Take `CCCCCCSCc1c(O)c(C)c(C)c2c1CCC(C)(C)O2` [5-Hexylsulfanylmethyl-2,2,7,8-tetramethyl-chroman-6-ol]: the EC50 was 0.01 to 6 µM in assay [3] and < 5 µM in assay [2].
For the compound `Cc1c(C)c2c(c(CSC3CCCC3)c1O)CCC(C)(C)O2` [5-Cyclopentylsulfanylmethyl-2,2,7,8-tetramethyl-chroman-6-ol], the concentration for a half-maximal effect (EC50) in assay [3] is 0.01 to 6 µM; in assay [2] it was < 5 µM.
In the same order, the values of `Cc1c(C)c2c(c(CSCC(C)C(=O)N3CCCC3C(=O)O)c1O)CCC(C)(CCCC(C)CCCC(C)CCCC(C)C)O2` (centres unmarked) [1-{3-[6-Hydroxy-2,7,8-trimethyl-2-(4,8,12-trimethyl-tridecyl)-chroman-5-ylmethylsulfanyl]-2-methyl-propionyl}-pyrrolidine-2-carboxylic acid] are 0.01 to 6 µM and < 5 µM.
